# Results published in US12543738B2 (Bayer Aktiengesellschaft, priority 2020, dated 2026).
# Marks after values point to notes of the source that are not given here.
# Experiment: Measurement of LogP values by HPLC on reversed phase columns (EEC directive 79/831 Annex V.A8)
# Type: physicochemical
# Conditions: not given
# Description: Calibration was done with straight-chain alkan2-ones (with 3 to 16 carbon atoms) with known LogP values (measurement of LogP values using retention times with linear interpolation between successive alkanones). Lambda-max-values were determined using UV-spectra from 200 nm to 400 nm and the peak values of the chromatographic signals
row,LogP,SMILES
1,1.26^[a],Cc1cc(C(=O)O)c(Oc2cccc(Cl)c2)nn1 [Compound 1-01]
2,1.32^[a],Cc1cc(C(=O)O)c(Oc2cccc(C)c2F)nn1 [Compound 1-02]
3,0.68^[a],Cc1cc(C(=O)O)c(Oc2cccc(C3(F)CC3)c2)nn1 [Compound 1-05]
4,4.73^[a],Cc1cc(C(=O)OC(C)C)c(Oc2cccc(C3(F)CC3)c2)nn1 [Compound 1-06]
5,1.55[a],Cc1ccc(CC(N)CON2C(=O)c3ccccc3C2=O)c(C)c1.O=C(O)C(F)(F)F (stereo not drawn) [Compound 2-01]
6,5.27^[a],O=C(NC(CON1C(=O)c2ccccc2C1=O)Cc1ccc(Cl)cc1Cl)c1cc(Cl)nnc1Oc1cccc(C2CC2)c1F (stereo not drawn) [Compound 3-02]
7,4.51^[a],Cc1ccc(CC(CCl)NC(=O)c2cc(C)nnc2Oc2cccc(Cl)c2)c(Br)c1 (stereo not drawn) [Compound 14-01]
8,4.43^[a],Cc1ccc(CC(CCl)NC(=O)c2cc(C)nnc2Oc2cccc(C)c2F)c(Cl)c1 (stereo not drawn) [Compound 14-02]
9,4.47^[a],Cc1cc(C)cc(CC(CCl)NC(=O)c2cc(C)nnc2Oc2cccc(C)c2F)c1 (stereo not drawn) [Compound 14-04]
10,4.51^[a],Cc1cc(C)cc(CC(CCl)NC(=O)c2cc(C)nnc2Oc2cccc(Cl)c2)c1 (stereo not drawn) [Compound 14-05]
11,4.59^[a],Cc1cc(C)cc(CC(CCl)NC(=O)c2cc(C)nnc2Oc2cccc(Cl)c2F)c1 (stereo not drawn) [Compound 14-06]
12,4.42^[a],Cc1ccc(C)c(CC(CCl)NC(=O)c2cc(C)nnc2Oc2cccc(Cl)c2F)c1 (stereo not drawn) [Compound 14-07]
13,4.37^[a],Cc1ccc(C)c(CC(CCl)NC(=O)c2cc(C)nnc2Oc2cccc(C)c2F)c1 (stereo not drawn) [Compound 14-08]
14,4.37^[a],Cc1ccc(C)c(CC(CCl)NC(=O)c2cc(C)nnc2Oc2cccc(Cl)c2)c1 (stereo not drawn) [Compound 14-09]
15,4.58^[a],Cc1ccc(CC(CCl)NC(=O)c2cc(C)nnc2Oc2cccc(C3(F)CC3)c2)c(C)c1 (stereo not drawn) [Compound 14-10]
16,4.97^[a],Cc1ccc(CC(CCl)NC(=O)c2cc(Cl)nnc2Oc2cccc(Cl)c2)c(Cl)c1 (stereo not drawn) [Compound 14-12]
17,3.84^[a],Cc1ccc(CC(CCl)NC(=NO)c2cc(C)nnc2Oc2cccc(Cl)c2)c(Br)c1 (stereo not drawn) [Compound 15-01]
18,3.75^[a],Cc1ccc(CC(CCl)NC(=NO)c2cc(C)nnc2Oc2cccc(C)c2F)c(Cl)c1 (stereo not drawn) [Compound 15-02]
19,3.98^[a],Cc1cc(C)cc(CC(CCl)NC(=NO)c2cc(C)nnc2Oc2cccc(Cl)c2F)c1 (stereo not drawn) [Compound 15-04]
20,3.84^[a],Cc1ccc(C)c(CC(CCl)NC(=NO)c2cc(C)nnc2Oc2cccc(Cl)c2F)c1 (stereo not drawn) [Compound 15-05]
21,3.74^[a],Cc1ccc(C)c(CC(CCl)NC(=NO)c2cc(C)nnc2Oc2cccc(C)c2F)c1 (stereo not drawn) [Compound 15-06]
22,3.74^[a],Cc1ccc(C)c(CC(CCl)NC(=NO)c2cc(C)nnc2Oc2cccc(Cl)c2)c1 (stereo not drawn) [Compound 15-07]

row,SMILES,LogP
1,Cc1cc(C)cc(CC(N)CCl)c1.Cl (stereo not drawn) [Compound 13-02],1.32[a]
2,Cc1ccc(C)c(CC(N)CCl)c1.Cl (stereo not drawn) [Compound 13-03],1.13[a]
3,Cc1ccc(CC(N)CCl)c(C)c1.Cl (stereo not drawn) [Compound 13-04],1.24[a]

# Same assay, conditions: method [a]: LC-UV, acidic range, 0.1% formic acid in water and acetonitrile; compounds of formula (I-1), Table 1
row,SMILES,chromatographic logP
1,"Cc1ccc(CC2CON=C(c3cc(Cl)nnc3Oc3cccc(Cl)c3)N2)c(Cl)c1 (racemic) [Compound I-017, (5RS)-3-[6-chloro-3-(3-chlorophenoxy)pyridazin-4-yl]-5-(2-chloro-4-methylbenzyl)-5,6-dihydro-4H-1,2,4-oxadiazine]",4.44
2,"Clc1ccc(CC2CON=C(c3cc(Cl)nnc3Oc3cccc(C4(Cl)CC4)c3)N2)c(Cl)c1 (racemic) [Compound I-024, (5RS)-3-{6-chloro-3-[3-(1-chlorocyclopropyl)phenoxy]pyridazin-4-yl}-5-(2,4-dichlorobenzyl)-5,6-dihydro-4H-1,2,4-oxadiazine]",4.93
3,"Cc1ccc(C[C@H]2CON=C(c3cc(C(Cl)Cl)nnc3Oc3cccc(C4CC4)c3F)N2)c(C)c1 [Compound I-021, (5S)-3-[3-(3-cyclopropyl-2-fluorophenoxy)-6-(dichloromethyl)pyridazin-4-yl]-5-(2,4-dimethylbenzyl)-5,6-dihydro-4H-1,2,4-oxadiazine]",5.11

# Same assay, conditions: method [a]: LC-UV, acidic range, 0.1% formic acid; intermediates of formula (3), Table 7
row,SMILES,chromatographic logP
1,"Cc1ccc(CC(CON2C(=O)c3ccccc3C2=O)NC(=O)c2cc(C)nnc2Oc2cccc(Cl)c2)c(C)c1 (racemic) [Compound 3-01, 3-(3-chlorophenoxy)-N-{(2RS)-1-(2,4-dimethylphenyl)-3-[(1,3-dioxo-1,3-dihydro-2H-isoindol-2-yl)oxy]propan-2-yl}-6-methylpyridazine-4-carboxamide]",4.47

# Same assay, conditions: method [a]: LC-UV, acidic range, 0.1% formic acid; intermediates of formula (4), Table 9
row,SMILES,chromatographic logP
1,"Cc1ccc(CC(CON)NC(=O)c2cc(C)nnc2Oc2cccc(Cl)c2)c(C)c1 (racemic) [Compound 4-01, N-[(2RS)-1-(aminooxy)-3-(2,4-dimethylphenyl)propan-2-yl]-3-(3-chlorophenoxy)-6-methylpyridazine-4-carboxamide]",2.64
2,"NOCC(Cc1ccc(Cl)cc1Cl)NC(=O)c1cc(Cl)nnc1Oc1cccc(C2CC2)c1F (racemic) [Compound 4-02, 6-chloro-3-(3-cyclopropyl-2-fluoro-phenoxy)-N-[(1RS)-1-(aminooxymethyl)-2-(2,4-dichlorophenyl)ethyl]pyridazine-4-carboxamide]",3.7

# Same assay, conditions: method [a]: LC-UV, acidic range, 0.1% formic acid; intermediates of formula (14), Table 17
row,SMILES,chromatographic logP
1,"Cc1ccc(CC(CCl)NC(=O)c2cc(C)nnc2Oc2cccc(Cl)c2)c(Cl)c1 (racemic) [Compound 14-03, N-[(2RS)-1-chloro-3-(2-chloro-4-methylphenyl)propan-2-yl]-3-(3-chlorophenoxy)-6-methylpyridazine-4-carboxamide]",4.43

# Same assay, conditions: method [a]: LC-UV, acidic range, 0.1% formic acid; intermediates of formula (15), Table 15
row,SMILES,chromatographic logP
1,Cc1ccc(CC(CCl)NC(=NO)c2cc(C)nnc2Oc2cccc(Cl)c2)c(Cl)c1 (racemic) [Compound 15-03],3.78
